From the supplement of paper PMC10307832

Tests used:
Assay in all cases: relative viability (nuclei count vs DMSO), 5 days (fraction); higher = more cells survive
JZL-184 + Linsitinib = compound: C1CN(CCC1C(C2=CC3=C(C=C2)OCO3)(C4=CC5=C(C=C4)OCO5)O)C(=O)OC6=CC=C(C=C6)[N+](=O)[O-] [JZL-184] + C[C@]1(O)C[C@@H](c2nc(-c3ccc4ccc(-c5ccccc5)nc4c3)c3c(N)nccn32)C1 [Linsitinib] (partner 1 µM)
Procedure, shortened: (§1)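 Relative viability equals treated-well nuclei counts divided by vehicle-well nuclei counts. Counts came from 4× images of lung cancer cell lines grown in 1536-well plates for 5 days after pin-tool dosing on the day after seeding. Dosing used one drug alone or a fixed anchor-drug dose plus five library-drug doses (not always all listed) in √10 steps, and values are medians of duplicate plates.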

JZL-184 + Tozasertib = compound: C1CN(CCC1C(C2=CC3=C(C=C2)OCO3)(C4=CC5=C(C=C4)OCO5)O)C(=O)OC6=CC=C(C=C6)[N+](=O)[O-] [JZL-184] + Cc1cc(Nc2cc(N3CCN(C)CC3)nc(Sc3ccc(NC(=O)C4CC4)cc3)n2)n[nH]1 [Tozasertib] (partner 0.1 µM)
Procedure, shortened: as §1

JZL-184 + Vorinostat = compound: C1CN(CCC1C(C2=CC3=C(C=C2)OCO3)(C4=CC5=C(C=C4)OCO5)O)C(=O)OC6=CC=C(C=C6)[N+](=O)[O-] [JZL-184] + O=C(CCCCCCC(=O)Nc1ccccc1)NO [Vorinostat] (partner 1 µM)
Procedure, shortened: as §1

JZL-184 + Olaparib = compound: C1CN(CCC1C(C2=CC3=C(C=C2)OCO3)(C4=CC5=C(C=C4)OCO5)O)C(=O)OC6=CC=C(C=C6)[N+](=O)[O-] [JZL-184] + O=C(c1cc(Cc2n[nH]c(=O)c3ccccc23)ccc1F)N1CCN(C(=O)C2CC2)CC1 [Olaparib] (partner 8 µM)
Procedure, shortened: as §1

JZL-184 + Dasatinib = compound: C1CN(CCC1C(C2=CC3=C(C=C2)OCO3)(C4=CC5=C(C=C4)OCO5)O)C(=O)OC6=CC=C(C=C6)[N+](=O)[O-] [JZL-184] + Cc1nc(Nc2ncc(C(=O)Nc3c(C)cccc3Cl)s2)cc(N2CCN(CCO)CC2)n1 [Dasatinib] (partner 0.075 µM)
Procedure, shortened: as §1

| Cell Line | relative viability (JZL-184 + Linsitinib; first compound 0.04 µM) | relative viability (JZL-184 + Linsitinib; first compound 0.4 µM) | relative viability (JZL-184 + Linsitinib; first compound 1.265 µM) | relative viability (JZL-184 + Linsitinib; first compound 4 µM) | relative viability (JZL-184 + Tozasertib; first compound 0.04 µM) | relative viability (JZL-184 + Tozasertib; first compound 0.4 µM) | relative viability (JZL-184 + Tozasertib; first compound 1.265 µM) | relative viability (JZL-184 + Tozasertib; first compound 4 µM) | relative viability (JZL-184 + Vorinostat; first compound 0.4 µM) | relative viability (JZL-184 + Vorinostat; first compound 1.265 µM) | relative viability (JZL-184 + Vorinostat; first compound 4 µM) | relative viability (JZL-184 + Olaparib; first compound 0.4 µM) | relative viability (JZL-184 + Olaparib; first compound 1.265 µM) | relative viability (JZL-184 + Olaparib; first compound 4 µM) | relative viability (JZL-184 + Dasatinib; first compound 0.04 µM) | relative viability (JZL-184 + Dasatinib; first compound 0.4 µM) | relative viability (JZL-184 + Dasatinib; first compound 1.265 µM) | relative viability (JZL-184 + Dasatinib; first compound 4 µM) | relative viability (JZL-184 + Vorinostat; first compound 0.04 µM) | relative viability (JZL-184 + Olaparib; first compound 0.04 µM) |
| --- | --- | --- | --- | --- | --- | --- | --- | --- | --- | --- | --- | --- | --- | --- | --- | --- | --- | --- | --- | --- |
| NCI-H2347 | 0.98 | 0.953 | 0.926 | 0.946 | 0.447 | 0.442 | 0.551 | 0.662 | 0.494 | 0.661 | 0.616 | 0.577 | 0.586 | 0.53 | 0.277 | 0.305 | 0.29 | 0.369 |  |  |
| NCI-H2405 | 0.806 | 0.895 | 1.09 | 0.986 | 0.759 | 0.729 | 0.815 | 0.732 | 0.83 | 1.3 | 0.968 | 0.901 | 0.836 | 0.855 | 0.222 | 0.21 | 0.225 | 0.231 | 1.15 | 0.974 |
| NCI-H3122 | 1.03 | 0.949 | 1.03 | 0.971 | 0.432 | 0.393 | 0.453 | 0.396 | 0.988 | 0.965 | 1.06 | 0.55 | 0.667 | 0.598 | 0.918 | 0.718 | 0.872 | 0.778 | 1.05 | 0.571 |
| PC-3 [JPC-3] | 0.955 | 0.936 | 0.973 | 0.905 | 1.01 | 0.827 | 0.895 | 0.865 | 0.761 | 1.14 | 0.736 | 1.04 | 1.21 | 1.15 | 1.01 | 0.905 | 0.976 | 0.945 | 0.873 | 1.14 |
| PC-14 | 1.05 | 0.965 | 0.95 | 0.942 | 0.647 | 0.623 | 0.631 | 0.485 | 0.722 | 0.758 | 0.661 | 0.223 | 0.233 | 0.219 | 0.293 | 0.271 | 0.287 | 0.255 | 0.848 | 0.251 |
